We go through three molecules from patent publication US6251868A, “Method for treating a human immunodeficiency virus infection” (Teijin Limited, priority 1998, dated 2001).

“Also recorded” adds a separate entry of the source.

The test system of series [1] is uninfected human T-lymphoid cell-line, H-9. Briefly: Viability and growth of uninfected H-9 cells (trypan-blue exclusion). The series is classed as cell-based. The conditions noted are these: for cell viability (percentage of viable cells): through 6 days of incubation. On the procedure:
Every two or three days, 50-80% of cell suspensions were removed, and the same amount of fresh medium, with the same concentrations of the compound to be analyzed were added for further incubation. At the same time-points, viable cells were counted for calculating the relative cell growth value, by the trypan-blue exclusion method. At the same time, cell viability was also monitored as the percentage of viable cells in the total cell population.

The subject of series [2] is HIV-1 production of H-9/IIIB cells. The series can be described thus: HIV-1 p24 antigen production from H-9/IIIB cells at 1.25 or 2.5 mM (ELISA). The series is classed as cell-based, HIV-1 (HIV-1IIIB). The conditions noted are these: for HIV-1 production (p24 antigen) from H-9/IIIB cells: days two and four; for production of HIV-1 from chronically infected cells: high doses, up to a concentration of 2.5 mM. On the procedure: H-9/IIIB cells were washed thoroughly with phosphate-buffered saline (PBS) and resuspended at a density of 1×10^5 /ml in RPMI-1640/10% FBS with or without 1.25 or 2.5 mM of γ-GCE, GSH, or NAC. Since H-9/IIIB cells are constantly producing a large quantity of virus particles, stimulation with factors such as TNF-α or PMA were not required for carrying out these experiments. After two and four days, culture supernatant was removed, centrifuged to remove cells and debris, and evaluated by HIV-1 p24 antigen quantification. Measurement of the HIV-1 p24 antigen was performed by a sensitive enzyme-linked immunosorbant assay (ELISA) (DuPont).

The subject of series [3] is H-9/IIIB cells (H-9 cells infected with HIV-1IIIB). Briefly: Viability and growth of chronically HIV-1-infected H-9/IIIB cells (trypan-blue exclusion). The series is classed as cell-based, human. On the procedure: The uninfected human T-lymphoid cell-line, H-9, or H-9 cells infected with an HIV-1 strain, HIV-1IIIB (H-9/IIIB) (Science 1984; 224:497-500), were seeded in 24 or 96 well tissue culture plates at a density of 2-2.5×10^5 /ml and maintained in RPMI-1640 tissue culture medium supplemented with 10% fetal bovine serum (FBS), with or without a variety of concentrations of γ-GCE, GSH, or NAC. Every two or three days, 50-80% of cell suspensions were removed, and the same amount of fresh medium, with the same concentrations of the compound to be analyzed were added for further incubation. At the same time-points, viable cells were counted for calculating the relative cell growth value, by the trypan-blue exclusion method. At the same time, cell viability was also monitored as the percentage of viable cells in the total cell population. […]

Series [4] concerns HIV-1 production of H-9/IIIB cells. The series can be described thus: HIV-1 p24 antigen production from H-9/IIIB cells at low, non-toxic doses. The series is classed as cell-based, HIV-1 (HIV-1IIIB). The settings on record: for HIV-1 production (p24 antigen) of H-9/IIIB cells: days three and six. On the procedure: H-9/IIIB cells were washed with PBS and seeded at a density of 2×10^5 /ml in RPMI-1640/10% FBS with or without 0.2or 0.4 mM of γ-GCE. Three and six days after initiation of experiments, culture supernatants were sampled and assayed, as described above. On day three, 72% of each cell suspension was removed, and fresh medium with a corresponding GSH pro-drug was added. Total HIV-1 p24 antigen production values on day six were deduced by multiplying raw values, on day six, with the dilution factor on day three.

The subject of series [5] is HIV-1 strain NL-4-3 in H-9 cells. The series can be described thus: Acute HIV-1 infection of H-9 cells. The format is cell-based, HIV-1 (NL4-3). How it is done:
Virus stocks of the HIV-1NL4-3strain were prepared and titered as described previously (Hum Gene Ther 1995; 6: 1561-1571). H-9 cells (3×10^5cells.) were suspended in 1 ml of growth medium with or without γ-GCE at a variety of concentrations, and seeded in a chamber of a 24-well tissue culture plate. Virus suspension containing 30 pg of HIV-1 p24 antigen was added to each chamber, for the initial infection. Infection was carried out overnight at 37° C., then the cells were washed once with PBS, and once more with growth medium. The supernatant of the final wash was saved as a day 0 time-point. Washed cells were resuspended with corresponding media for further incubation at 37° C. Once in three days, cell suspensions and supernatants were harvested for cell counting and HIV-1 p24 antigen quantification. Measurement of cell growth, viability, and virus production were performed as described in a previous subsection. On the days of harvest, 200 μl of cell suspension was left in each well, and 800 μl of fresh medium with corresponding concentrations of γ-GCE was added to support cell growth, except day 18, on which 400 μl of cell suspension was left and 600 μl of medium was added to each well. Cell numbers at each time-point were determined accordingly, based on the accumulation of dilution factors along with the frequency of passage.

In series [6] the test system is HIV-1 virus stock (NL4-3). Briefly: Direct inactivation of HIV-1 by pre-incubation, then acute infection of H9 cells. The settings on record: for infectivity of HIV-1 after pre-incubation: 4 hours at 37° C., no viral production 15 days post-infection. The series is classed as cell-based, HIV-1 (NL4-3). On the procedure:
An HIV-1 virus stock (NL4-3) containing 6 ng of HIV-1 p24 antigen was pre-incubated in the presence or absence of γ-GCE in 20 ml of RPMI-1640/10% FBS for 4 hr at 37° C. Afterwards, acute infection of H9 cells were carried out, using […] of each pretreated virus suspension into 1 ml of the cell suspension without γ-GCE, as described in the previous subsection. Sampling and maintenance of cell culture were also performed, following the same procedure as described in the previous subsection, without adding any γ-GCE through passage.

Setting [7] is: some decrease in relative cell growth, minimal decrease in viability after 6 days.

Take `N[C@@H](CCC(=O)N[C@@H](CS)C(=O)NCC(=O)O)C(=O)O` [GSH, glutathione]: the “effect on cell viability and growth of uninfected H-9 cells” value (“effect on cell viability and growth” for short) in series [1] (2.5 mM) is on record as “no negative effects on growth”. Besides, the “cell viability (percentage of viable cells)” value in series [1] (uninfected H-9 cells, 2.5 mM) is reported as at least 90%. Further, the “HIV-1 production (p24 antigen) from H-9/IIIB cells” value in series [2] (1.25 mM) is on record as “neither GSH (triangles) nor NAC (rectangles) can overwhelm the vigorous HIV-1 production; also recorded: Neither GSH nor NAC could overwhelm the vigorous HIV-1 production; also recorded: did not alter viral expression”; in series [2] (2.5 mM) it was “increased the virus production”. Besides, the “production of HIV-1 from chronically infected cells” value in series [2] is given as “neither GSH nor other GSH precursors show inhibitory effects”.

For `CC(=O)N[C@@H](CS)C(=O)O` [NAC, N-acetylcysteine], the “effect on cell viability and growth” value in series [1] (2.5 mM) is on record as “no negative effects on growth”. Also, in series [1] (uninfected H-9 cells, 2.5 mM, Day 4), the “cell viability, lowest value” is 91.75±0.45%. The “cell viability (percentage of viable cells)” value in series [1] (uninfected H-9 cells, 2.5 mM) is listed as at least 90%. Moreover, the “HIV-1 production (p24 antigen) from H-9/IIIB cells” value in series [2] (1.25 mM) was “neither GSH (triangles) nor NAC (rectangles) can overwhelm the vigorous HIV-1 production; also recorded: Neither GSH nor NAC could overwhelm the vigorous HIV-1 production; also recorded: did not alter viral expression”; in series [2] (2.5 mM) it was “increased the virus production”.

Consider `CCOC(=O)[C@H](CS)NC(=O)CC[C@H](N)C(=O)O` [γ-GCE, γ-L-glutamyl-L-cysteine ethyl ester], for which the “discrepancy of the thresholds of the toxic doses between infected and uninfected cells” value in series [3] is “more than ten-fold”. Besides, the “cell viability of H-9/IIIB cells” value in series [3] (200 μM and 400 μM (either dose)) is over 86%. For the same molecule, the “cell growth of H-9/IIIB cells” value in series [3] (400 μM) was “Slower cell growth”; in series [3] (800 μM) it was “dramatically impairs growth; also recorded: dramatically impaired”; in series [3] (800 μM, after 12 days of treatment) it was “no significant cell growth”. Further, the “sensitivity of H-9/IIIB cells to γ-GCE relative to uninfected cells (selective toxicity)” value in series [3] (5 mM on H-9 vs 400 μM on H-9/IIIB, equivalent cytotoxic profiles) is “approximately 12.5 times”. In addition, the “cell growth relative to control” value in series [3] (H-9/IIIB, 800 μM, day six) is “less than 40 % of the control”. In addition, in series [3] (setting [7]), the “concentration giving equivalent cytotoxic profile on H-9/IIIB cells” value was about 400 µM. Besides, the “effect on cell viability and growth” value in series [1] (2.5 mM) was “unaffected; also recorded: no negative effects on cell viability and growth”. In series [1] (setting [7]), the “concentration giving equivalent cytotoxic profile on H-9 cells” value was about 5000 µM. Also, the “cell viability (percentage of viable cells)” value in series [1] (uninfected H-9 cells, 2.5 mM) is given as at least 90%. Also, the “HIV-1 production (p24 antigen) of H-9/IIIB cells” value in series [4] (200 μM) and in series [4] (400 μM) was “significantly inhibited” each time. In addition, in series [4] (lower concentrations (200-400 μM), viability not affected), the “viral production from chronically HIV1-expressing cells” value is listed as “significantly represses”. Besides, the “propagation of HIV-1 (total HIV-1 p24 antigen)” value in series [5] (1.6 mM, 21 days postinfection) is listed as “completely blocked”. Moreover, in series [5] (1.6 mM, data not illustrated), the syncytia-formation entry is listed as “not significantly observed”. In addition, the “growth and viability of HIV-1-inoculated H-9 cells” value in series [5] (1.6 mM, entire experiments) is “continued to grow actively, maintaining high viability”. Besides, the “acute infection (total HIV-1 p24 antigen)” value in series [5] (400-800 μM) is “not inhibited significantly”. Also, in series [5] (relatively high doses), the “propagation of HIV-1 in acute infection of T-lymphocytic cells” value is given as “entirely blocked”. The “HIV-1 production (p24 antigen) from H-9/IIIB cells” value in series [2] (1.25 mM) and in series [2] (2.5 mM) was “almost completely shut-off” throughout. The “production of HIV-1 from chronically infected cells” value in series [2] is “potently inhibits the production of HIV-1”. The “propagation of HIV-1 in H-9 cells after pre-incubation of virus” value in series [6] (625 μM, 4 hours) was “only some delay of the onset”. The “infectivity of HIV-1 after pre-incubation” value in series [6] (1.25 mM) and in series [6] (2.5 mM) was “completely inactivates; also recorded: loss of infectivity” each time. Besides, the “time in which infectivity of HIV-1 is directly inhibited” value in series [6] (relatively high doses) was “within four hours”. Also, the “viral infectivity after pre-incubation” value in series [6] (same concentrations (625 μM-2.5 mM), one hour, data not illustrated) is “did not show significant interference”.
